According to ChEMBL document CHEMBL2380256, “Discovery of novel Jak2-Stat pathway inhibitors with extended residence time on target” (Bioorg Med Chem Lett, 2013):

Tests used:
[1] = target: Tyrosine-protein kinase JAK2 (Homo sapiens, UniProt O60674); test: Inhibition of JAK2 (unknown origin) using biotinylated TYK2 peptide as substrate after 60 mins
[2] = target: T1, Tyrosine-protein kinase JAK3 (Homo sapiens, UniProt P52333); test: Inhibition of JAK3 (unknown origin) using biotinylated poly-EY peptide as substrate after 60 mins by HTRF assay
T1 sequence (P52333 whole entry): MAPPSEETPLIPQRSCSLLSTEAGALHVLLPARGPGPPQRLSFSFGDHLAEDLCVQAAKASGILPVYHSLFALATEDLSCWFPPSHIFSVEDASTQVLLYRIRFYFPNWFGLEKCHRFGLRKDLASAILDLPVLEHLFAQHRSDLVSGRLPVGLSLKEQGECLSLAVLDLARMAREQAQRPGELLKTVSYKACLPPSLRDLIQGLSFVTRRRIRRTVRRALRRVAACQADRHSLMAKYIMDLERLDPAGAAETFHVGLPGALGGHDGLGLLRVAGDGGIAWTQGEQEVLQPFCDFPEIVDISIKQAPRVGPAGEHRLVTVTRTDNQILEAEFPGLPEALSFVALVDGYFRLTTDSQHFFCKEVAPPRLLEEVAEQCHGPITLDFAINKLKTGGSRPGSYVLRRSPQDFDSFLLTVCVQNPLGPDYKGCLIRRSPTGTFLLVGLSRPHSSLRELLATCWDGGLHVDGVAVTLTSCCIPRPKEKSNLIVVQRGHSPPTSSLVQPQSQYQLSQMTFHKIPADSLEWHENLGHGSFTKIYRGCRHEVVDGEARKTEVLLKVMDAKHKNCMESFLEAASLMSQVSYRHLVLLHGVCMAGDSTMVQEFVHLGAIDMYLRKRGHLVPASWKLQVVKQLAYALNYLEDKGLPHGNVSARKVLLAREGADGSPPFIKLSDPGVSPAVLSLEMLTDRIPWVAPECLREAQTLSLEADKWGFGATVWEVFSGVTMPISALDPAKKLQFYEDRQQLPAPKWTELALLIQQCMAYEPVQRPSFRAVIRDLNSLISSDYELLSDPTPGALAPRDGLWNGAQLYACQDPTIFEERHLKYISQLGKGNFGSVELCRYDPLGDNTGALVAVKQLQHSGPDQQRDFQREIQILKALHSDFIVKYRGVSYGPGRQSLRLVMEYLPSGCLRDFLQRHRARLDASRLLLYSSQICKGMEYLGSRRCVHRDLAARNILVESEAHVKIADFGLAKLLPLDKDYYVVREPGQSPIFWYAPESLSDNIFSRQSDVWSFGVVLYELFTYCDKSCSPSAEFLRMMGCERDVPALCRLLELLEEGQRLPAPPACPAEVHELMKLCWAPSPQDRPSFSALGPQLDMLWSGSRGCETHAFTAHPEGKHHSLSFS

[3] = Growth inhibition of human UKE1 cells harboring JAK2 V617F mutant after 2 days by [3H]-thymidine incorporation assay; assay type: functional
[4] = Growth inhibition of mouse BA/F3 cells transfected with JAK2 TEL domain after 24 hrs by Alamar Blue assay; assay type: functional; conditions: BaF3, 24 h
[5] = Growth inhibition of mouse BA/F3 cells transfected with JAK3 TEL domain after 24 hrs by Alamar Blue assay; assay type: functional, cell-based; conditions: BaF3, 24 h
SET-2 = test: Growth inhibition of human SET2 harboring JAK2 V617F mutant after 24 hrs by Alamar Blue assay; assay type: functional; conditions: SET-2, 24 h

Sequence of Tyrosine-protein kinase JAK2 (O60674 whole entry): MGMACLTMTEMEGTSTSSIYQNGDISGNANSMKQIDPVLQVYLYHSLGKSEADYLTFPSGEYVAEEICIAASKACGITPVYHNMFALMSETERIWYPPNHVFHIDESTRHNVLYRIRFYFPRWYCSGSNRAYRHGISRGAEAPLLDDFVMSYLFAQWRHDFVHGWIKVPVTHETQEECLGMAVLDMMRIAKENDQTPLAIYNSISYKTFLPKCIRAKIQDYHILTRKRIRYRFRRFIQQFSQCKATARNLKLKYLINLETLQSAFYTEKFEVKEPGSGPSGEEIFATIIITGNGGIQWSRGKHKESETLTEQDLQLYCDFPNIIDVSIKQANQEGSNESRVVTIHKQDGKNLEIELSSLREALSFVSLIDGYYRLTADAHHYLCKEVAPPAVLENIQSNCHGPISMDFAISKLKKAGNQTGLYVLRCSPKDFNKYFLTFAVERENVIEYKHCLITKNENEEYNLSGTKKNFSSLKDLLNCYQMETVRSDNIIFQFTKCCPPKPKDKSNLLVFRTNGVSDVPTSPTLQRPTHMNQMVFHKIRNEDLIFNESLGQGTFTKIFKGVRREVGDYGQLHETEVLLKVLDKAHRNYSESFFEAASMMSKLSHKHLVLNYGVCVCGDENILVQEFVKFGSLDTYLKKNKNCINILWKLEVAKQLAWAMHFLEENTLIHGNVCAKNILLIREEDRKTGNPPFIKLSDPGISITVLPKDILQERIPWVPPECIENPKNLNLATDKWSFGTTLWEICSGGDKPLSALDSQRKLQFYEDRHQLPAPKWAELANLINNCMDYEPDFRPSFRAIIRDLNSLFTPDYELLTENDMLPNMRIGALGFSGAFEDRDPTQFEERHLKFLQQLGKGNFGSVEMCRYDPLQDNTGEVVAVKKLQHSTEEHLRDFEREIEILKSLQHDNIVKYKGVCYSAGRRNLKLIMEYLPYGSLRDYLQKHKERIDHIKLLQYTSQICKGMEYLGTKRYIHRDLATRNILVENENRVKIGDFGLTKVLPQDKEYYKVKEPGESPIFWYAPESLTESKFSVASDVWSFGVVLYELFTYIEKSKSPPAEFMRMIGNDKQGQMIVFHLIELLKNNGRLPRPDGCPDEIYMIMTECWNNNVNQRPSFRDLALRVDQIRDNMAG

IC50 [1] [nM] | IC50 [2] [nM] | SMILES | GI50 [3] [nM] | GI50 [4] [nM] | GI50 ([5]; read-out: GI50) [nM] | GI50 (SET-2) [nM] | GI50 [5] [nM]
6 | 262 | Cc1cc(Nc2nc(N[C@@H](C)c3ccc(F)cn3)c(Cl)c(N3CCOCC3)n2)[nH]n1 |  |  |  |  | 
4 | 45 | Cc1cc(Nc2nc(O[C@@H](C)c3ncc(F)cc3F)c(F)c(N3CCOCC3)n2)n[nH]1 | 30 | 10 | 430 | 18 | 
4 | 87 | Cc1cc(Nc2nc(O[C@@H](C)c3ccc(F)cn3)c(F)c(N3CCOCC3)n2)n[nH]1 |  | 16 | 240 |  | 
25 | > 30000 | Cc1cnc(Nc2nc(N[C@@H](C)c3ncc(F)cn3)nc(N3CCOCC3)c2F)s1 |  | 30 | 4900 |  | 
37 | 11200 | COc1cc(Nc2nc(N[C@@H](C)c3ncc(F)cn3)c(F)c(N3CCOCC3)n2)n[nH]1 |  | 160 | 9400 |  | 
3 | 20 | Cc1cc(Nc2nc(N[C@@H](C)c3ccc(F)cn3)c(F)c(N3CCN(S(C)(=O)=O)CC3)n2)n[nH]1 |  |  |  |  | 50
4 | 30 | Cc1cc(Nc2nc(N[C@@H](C)c3ccc(F)cn3)c(F)c(N3CCNCC3)n2)n[nH]1 |  |  |  |  | 480
 | 15 | Cc1cc(Nc2nc(N[C@@H](C)c3ccc(F)cn3)c(F)c(N3CCN(C)CC3)n2)n[nH]1 |  |  | 380 |  | 
